Data reported in the supplement of paper PMC10307832.

Experiments:
Assay in all cases: relative viability (nuclei count vs DMSO), 5 days (fraction); higher = more cells survive
XMD13-2 + Alpelisib = compound: C1CC1C(=O)NC2=NNC3=C2C=CC(=C3)C4=CC(=CC=C4)C(=O)NC5CC5 [XMD13-2] + Cc1nc(NC(=O)N2CCC[C@H]2C(N)=O)sc1-c1ccnc(C(C)(C)C(F)(F)F)c1 [Alpelisib] (partner 2 µM)
Summary of the method: (§1)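 Relative viability is defined as nuclei in treated wells over nuclei in vehicle wells. Duplicate plates were run and medians reported. Lung cancer cell lines in 1536-well plates were dosed by pin tool one day after seeding, with one drug or with a fixed anchor-drug dose plus five library-drug doses (not always all listed) in √10 steps, and nuclei were counted after 5 days.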

[1] = compound: Cc1ccc(C(=O)Nc2cccc(C(F)(F)F)c2)cc1Nc1cncc(C(N)=O)c1 [ALW-II-49-7] + CC(=O)c1c(C)c2cnc(Nc3ccc(N4CCNCC4)cn3)nc2n(C2CCCC2)c1=O [Palbociclib] (partner 0.5 µM)
Summary of the method: as §1

Dasatinib + AZD7762 = compound: Cc1nc(Nc2ncc(C(=O)Nc3c(C)cccc3Cl)s2)cc(N2CCN(CCO)CC2)n1 [Dasatinib] + NC(=O)Nc1cc(-c2cccc(F)c2)sc1C(=O)N[C@H]1CCCNC1 [AZD7762] (partner 0.2 µM)
Summary of the method: as §1

ALW-II-49-7 + Decitabine = compound: Cc1ccc(C(=O)Nc2cccc(C(F)(F)F)c2)cc1Nc1cncc(C(N)=O)c1 [ALW-II-49-7] + Nc1ncn([C@H]2C[C@H](O)[C@@H](CO)O2)c(=O)n1 [Decitabine] (partner 2 µM)
Summary of the method: as §1

| Cell Line | relative viability (XMD13-2 + Alpelisib; first compound 0.05 µM) | relative viability (XMD13-2 + Alpelisib; first compound 0.1581 µM) | relative viability (XMD13-2 + Alpelisib; first compound 0.5 µM) | relative viability (XMD13-2 + Alpelisib; first compound 1.581 µM) | relative viability (XMD13-2 + Alpelisib; first compound 5 µM) | relative viability ([1]; first compound 0.08 µM) | relative viability ([1]; first compound 0.253 µM) | relative viability ([1]; first compound 0.8 µM) | relative viability ([1]; first compound 2.53 µM) | relative viability ([1]; first compound 8 µM) | relative viability (Dasatinib + AZD7762; first compound 0.005 µM) | relative viability (Dasatinib + AZD7762; first compound 0.01581 µM) | relative viability (Dasatinib + AZD7762; first compound 0.05 µM) | relative viability (Dasatinib + AZD7762; first compound 0.1581 µM) | relative viability (Dasatinib + AZD7762; first compound 0.5 µM) | relative viability (ALW-II-49-7 + Decitabine; first compound 0.08 µM) | relative viability (ALW-II-49-7 + Decitabine; first compound 0.253 µM) | relative viability (ALW-II-49-7 + Decitabine; first compound 0.8 µM) | relative viability (ALW-II-49-7 + Decitabine; first compound 2.53 µM) | relative viability (ALW-II-49-7 + Decitabine; first compound 8 µM) |
| --- | --- | --- | --- | --- | --- | --- | --- | --- | --- | --- | --- | --- | --- | --- | --- | --- | --- | --- | --- | --- |
| 201T | 1.07 | 1.03 | 0.945 | 1 | 1.07 | 0.362 | 0.361 | 0.376 | 0.329 | 0.347 | 0.848 | 0.635 | 0.493 | 0.455 | 0.302 | 0.832 | 0.84 | 0.872 | 0.846 | 0.904 |
| A-427 | 1.19 | 1.05 | 1.02 | 0.949 | 0.965 | 0.491 | 0.523 | 0.556 | 0.561 | 0.51 | 0.72 | 0.745 | 0.536 | 0.52 | 0.519 | 0.531 | 0.585 | 0.616 | 0.612 | 0.655 |
| ABC-1 | 1.29 | 1.15 | 0.893 | 0.928 | 0.998 | 0.48 | 0.647 | 0.59 | 0.665 | 0.711 | 0.74 | 0.689 | 0.758 | 0.747 | 0.383 | 1.02 | 1.11 | 1.01 | 1.35 | 0.947 |
| BEN | 1.29 | 1.03 | 1 | 1.03 | 1.11 | 0.468 | 0.452 | 0.482 | 0.439 | 0.481 | 0.747 | 0.558 | 0.483 | 0.402 | 0.43 | 0.693 | 0.751 | 0.776 | 0.728 | 0.656 |
| EKVX | 1.12 | 0.882 | 0.92 | 0.931 | 0.937 | 0.454 | 0.344 | 0.413 | 0.278 | 0.359 | 0.684 | 0.663 | 0.515 | 0.221 | 0.172 | 0.513 | 0.321 | 0.327 | 0.318 | 0.408 |
| EMC-BAC-2 | 0.844 | 0.748 | 0.752 | 0.703 | 0.57 | 0.499 | 0.519 | 0.488 | 0.437 | 0.391 | 1.05 | 1.03 | 0.776 | 0.591 | 0.391 | 1.01 | 1.02 | 0.982 | 0.947 | 0.907 |
| EPLC-272H | 1.03 | 0.856 | 1.07 | 0.759 | 0.463 | 0.273 | 0.319 | 0.317 | 0.346 | 0.343 | 0.222 | 0.245 | 0.173 | 0.125 | 0.147 | 0.326 | 0.381 | 0.329 | 0.373 | 0.295 |
| H3255 | 0.858 | 0.597 | 0.658 | 0.729 | 0.624 | 0.309 | 0.314 | 0.322 | 0.28 | 0.295 | 0.899 | 0.856 | 0.832 | 0.686 | 0.372 | 0.611 | 0.511 | 0.662 | 0.577 | 0.425 |
| HARA | 0.923 | 0.795 | 0.943 | 0.808 | 0.988 | 0.239 | 0.265 | 0.249 | 0.261 | 0.254 | 0.31 | 0.129 | 0.298 | 0.291 | 0.184 | 0.689 | 0.47 | 0.497 | 0.52 | 0.663 |
| HCC-15 | 0.91 | 0.811 | 0.911 | 0.878 | 0.619 | 0.729 | 0.722 | 0.704 | 0.712 | 0.68 | 1.37 | 1.12 | 1.07 | 0.897 | 0.585 | 0.596 | 0.654 | 0.626 | 0.624 | 0.644 |
| HCC-44 | 0.995 | 0.843 | 0.934 | 0.82 | 0.745 | 0.961 | 1.02 | 0.972 | 0.871 | 0.864 | 1.07 | 0.992 | 1.19 | 1.33 | 1.1 | 0.971 | 0.974 | 0.945 | 0.996 | 0.913 |
| HCC-78 | 0.392 | 0.338 | 0.327 | 0.304 | 0.352 | 0.434 | 0.47 | 0.488 | 0.509 | 0.416 | 0.668 | 0.618 | 0.472 | 0.372 | 0.226 | 0.68 | 0.639 | 0.71 | 0.666 | 0.619 |
| HCC-366 | 0.61 | 0.31 | 0.334 | 0.446 | 0.443 | 0.354 | 0.454 | 0.388 | 0.299 | 0.326 | 0.234 | 0.248 | 0.143 | 0.159 | 0.0931 | 0.354 | 0.371 | 0.374 | 0.385 | 0.307 |
| HCC-827 | 1.01 | 0.917 | 1.01 | 0.947 | 0.528 | 0.44 | 0.465 | 0.466 | 0.367 | 0.391 | 0.215 | 0.176 | 0.127 | 0.114 | 0.146 | 0.294 | 0.307 | 0.335 | 0.331 | 0.271 |
| HOP-62 | 0.848 | 0.516 | 1.03 | 1 | 0.664 | 0.49 | 0.423 | 0.461 | 0.33 | 0.336 | 0.481 | 0.585 | 0.626 | 0.268 | 0.167 | 0.207 | 0.286 | 0.165 | 0.223 | 0.285 |
| LC-2-ad | 0.983 | 0.887 | 0.939 | 0.938 | 0.79 | 0.455 | 0.488 | 0.435 | 0.506 | 0.526 | 0.871 | 0.727 | 0.599 | 0.337 | 0.268 | 0.84 | 0.845 | 0.861 | 0.8 | 0.863 |
| LCLC-97TM1 | 0.214 | 0.262 | 0.225 | 0.206 | 0.146 | 0.198 | 0.215 | 0.214 | 0.188 | 0.235 | 0.161 | 0.274 | 0.218 | 0.17 | 0.0853 | 0.256 | 0.201 | 0.252 | 0.236 | 0.207 |
| LCLC-103H | 0.91 | 0.979 | 0.981 | 0.959 | 0.851 | 0.486 | 0.533 | 0.494 | 0.495 | 0.55 | 0.695 | 0.666 | 0.628 | 0.523 | 0.331 | 0.757 | 0.781 | 0.726 | 0.727 | 0.684 |
| LK-2 | 1.33 | 0.998 | 0.98 | 1.04 | 1.02 | 0.767 | 0.487 | 0.63 | – | 0.673 | 0.31 | – | 0.191 | 0.0866 | 0.129 | 0.393 | 0.288 | 0.301 | – | 0.252 |
| LOU-NH91 | 0.783 | 0.759 | 0.72 | 0.659 | 0.796 | 0.484 | 0.526 | 0.517 | – | 0.564 | 0.747 | 0.638 | 0.623 | 0.469 | 0.384 | 0.785 | 0.824 | 0.844 | – | 0.861 |
| LU99A | 0.553 | 0.491 | 0.561 | 0.446 | 0.335 | – | 0.403 | 0.39 | 0.377 | 0.359 | 0.399 | 0.35 | 0.277 | 0.215 | 0.171 | – | 1.03 | 1 | 0.839 | 1.09 |
| LXF-289 | 1.09 | 0.982 | 1.08 | 1.05 | 1.04 | 0.529 | 0.682 | 0.625 | 0.709 | 0.674 | 1.14 | 1.12 | 1.09 | 0.371 | 0.184 | 0.391 | 0.372 | 0.411 | 0.407 | 0.443 |
| NCI-H23 | 0.731 | 0.676 | 0.752 | 0.669 | 0.806 | 0.495 | 0.496 | 0.573 | 0.54 | 0.543 | 0.321 | 0.24 | 0.231 | 0.224 | 0.187 | 0.311 | 0.286 | 0.303 | 0.328 | 0.333 |
| NCI-H322M | 0.833 | 0.716 | 0.71 | 0.793 | 0.872 | 0.439 | 0.453 | 0.486 | 0.534 | 0.505 | 0.597 | 0.526 | 0.468 | 0.265 | 0.381 | 0.618 | 0.774 | 0.637 | 0.756 | 0.671 |
| NCI-H358 | 1.06 | 0.774 | 0.843 | 0.822 | 0.529 | 0.128 | 0.13 | 0.141 | 0.133 | 0.117 | 0.538 | 0.455 | 0.364 | 0.241 | 0.244 | 0.19 | 0.183 | 0.22 | 0.234 | 0.232 |
| NCI-H441 | 0.675 | 1.15 | 0.649 | 0.801 | 0.547 | 0.182 | 0.177 | 0.249 | 0.212 | 0.188 | 1.27 | 1.01 | 0.904 | 0.723 | 0.364 | 0.257 | 0.229 | 0.253 | 0.208 | 0.253 |
| SW 900 | – | – | – | – | – | 0.475 | 0.577 | – | 0.573 | 0.658 | 0.592 | 0.534 | 0.371 | 0.36 | 0.147 | 0.506 | 0.487 | – | 0.552 | 0.661 |
